Measurements reported in patent publication US20200148617A1, “GEMCABENE, PHARMACEUTICALLY ACCEPTABLE SALTS THEREOF, COMPOSITIONS THEREOF AND METHODS OF USE THEREFOR” (GEMPHIRE THERAPEUTICS INC., priority 2017, published 2020).
Where two headings read alike, the source gives them in different places.

How the values were obtained:
[1] = female, human, in vivo
Experimental: (§1) An open-label, two-sequence, cross-over study to assess the steady-state effects of gemcabene on the single-dose pharmacokinetics (PK) of oral contraceptive tablets in healthy female subjects was conducted with 300 mg tablets containing gemcabene calcium salt hydrate Crystal Form 1 having PSD90 of 52 μm (Tablet F).
The population for this study was generally healthy, adult female subjects of childbearing potential (≥18 to ≤35 years of age). This population supports the overall objective of the study to evaluate the effect of 600 mg of gemcabene calcium salt hydrate Crystal Form 1 having PSD90 of 52 μm at steady-state on the PK of a single dose of ON 1/35 (Ortho Novum 1/35; combined ethinyl estradiol/norethindrone oral contraceptive). The primary objective of this study was to assess the effect of daily 600 mg of gemcabene calcium salt hydrate Crystal Form 1 having PSD90 of 52 μm at steady-state on the pharmacokinetics (PK) of ON 1/35. The secondary objectives of this study were to assess the safety and tolerability of daily gemcabene 600 mg in combination with a single-dose ON 1/35 and to assess the steady-state PK of 600 mg of gemcabene calcium salt hydrate Crystal Form 1 having PSD90 of 52 μm (Tablet F×2). […]

[2] = Steady-state plasma gemcabene pharmacokinetics, 600 mg daily, healthy female subjects; format: in vivo; details: human, oral
Experimental: as §1
The population for this study was generally healthy, adult female subjects of childbearing potential (≥18 to ≤35 years of age). This population supports the overall objective of the study to evaluate the effect of 600 mg of gemcabene calcium salt hydrate Crystal Form 1 having PSD90 of 52 μm at steady-state on the PK of a single dose of ON 1/35 (Ortho Novum 1/35; combined ethinyl estradiol/norethindrone oral contraceptive). The primary objective of this study was to assess the effect of daily 600 mg of gemcabene calcium salt hydrate Crystal Form 1 having PSD90 of 52 μm at steady-state on the pharmacokinetics (PK) of ON 1/35. The secondary objectives of this study were to assess the safety and tolerability of daily gemcabene 600 mg in combination with a single-dose ON 1/35 and to assess the steady-state PK of 600 mg of gemcabene calcium salt hydrate Crystal Form 1 having PSD90 of 52 μm (Tablet F×2).
Gemcabene calcium salt hydrate Crystal Form 1 having PSD90 of 52 μm was administered orally as a single dose of 600 mg, given as two 300 mg tablets (300-mg Tablet F×2) (with 240 mL of water). Gemcabene calcium salt hydrate Crystal Form 1 having PSD90 of 52 μm (600 mg) was administered at the same time each day.

[3] = Steady-state pharmacokinetics of gemcabene at 300, 600, 900 mg/day in FH patients; format: in vivo, human; details: for Cmax / AUC(0-t) / CL/F: mean
Experimental: This was an open-label, dose-finding, 3-period, 3-treatment study using successively escalating doses of 300 mg, 600 mg, and 900 mg gemcabene calcium salt hydrate Crystal Form 1 having PSD90 of 52 μm in patients clinically diagnosed with familial hypercholesterolemia (FH). The treatment plan was for each of 8 patients to receive each of the successive doses, daily, for 4 weeks at a time with no interruption in gemcabene calcium salt hydrate Crystal Form 1 dosing between the dose levels. That is, the 8 FH patients were administered daily oral doses of gemcabene calcium salt hydrate Crystal Form 1 having PSD90 of 52 μm at 300 mg/day on Days 1-28, 600 mg/day on Days 29-56, and 900 mg/day on Days 57-84. Pharmacokinetic plasma samples were collected pre-dose and 0.5, 1, 2, 3, 5, and 12 hours post-dose on Day 28, Day 56, and Day 84. Additional (trough) samples were collected pre-dose on Day 14, Day 42, Day 70, and at the Early Termination Visit (if applicable). Plasma from these samples were analyzed for gemcabene concentrations and the data used for PK analysis. Plasma sample concentrations were available for pharmacokinetic analysis for all but 1 patient for whom no results were reported following the 900 mg dose on Day 84. Since there were no days off between dose levels, the starting plasma concentration for the 600 mg and 900 mg treatment periods was the steady state concentration for 300 mg and 600 mg, respectively.
During Days 1-28, patients received one 300-mg strength tablet containing gemcabene calcium salt hydrate Crystal Form 1 having PSD90 of 52 μm (Tablet D); during the Days 29-56, patients received two 300-mg strength tablets (2× Tablet D); and during the Days 57-84, patients received three 300-mg strength tablets (3× Tablet D) per day.
PK parameter estimates were derived by standard non-compartmental analysis methods using a validated installation of Phoenix® WinNonlin® version 6.4. The actual sampling times were used in the PK parameter calculations.
All plasma concentrations reported as missing were treated as missing. Steady state was assumed following QD administration for 28 days and therefore, plasma gemcabene concentrations at 24 hours post-dose were used as the pre-dose concentrations.
The following gemcabene PK parameters were calculated for each patient from the plasma concentration-time data:
AUClast and AUC(0-24) were calculated by numeric integration using the trapezoidal rule with linear up and log down interpolation.
The criterion for dose proportionality is 95% CI around the slope containing the value “1”.
The individual patient and gemcabene concentration-time data are listed using the number of significant digits or decimal places provided by the bioanalytical lab and nominal sample times, and summarized descriptively in tabular formats by dose level, and visit (for trough samples).

## CC(C)(CCCCOCCCCC(C)(C)C(=O)O)C(=O)O [gemcabene, 6-(5-carboxy-5-methyl-hexyloxy)-2,2-dimethyl-hexanoic acid]
[1]
  subjects with drug-related TEAE (constipation): 1 subject
[2]; Day 6, Treatment B, read-out: mean plasma gemcabene trough concentration
  concentration at 6 day: 98.8 µg/mL
[2]; Day 7, Treatment B, read-out: mean plasma gemcabene trough concentration
  concentration at 7 day: 106 µg/mL
[2]; Day 8, Treatment B, read-out: mean plasma gemcabene trough concentration
  concentration at 8 day: 104 µg/mL
[2]; steady state, read-out: mean Cmax,ss
  Cmax: 178 µg/mL
[3]; 300 mg/day to 900 mg/day
  dose proportionality of AUC(0-24): increased dose proportionally
  dose proportionality of Cmax: slightly less than dose proportional
[3]; human, oral, 300 mg/day (Tablet D), Day 28 steady state, FH patients, plasma, n=8
  Cmax: 84.8 µg/mL
[3]; human, oral, 600 mg/day (2× Tablet D), Day 56 steady state, FH patients, plasma, n=8
  Cmax: 149 µg/mL
[3]; human, oral, 900 mg/day (3× Tablet D), Day 84 steady state, FH patients, plasma, n=7
  Cmax: 195 µg/mL
[3]; human, plasma, oral, 300 mg/day, 300 mg/day (Tablet D), steady state, FH patients, n=8, read-out: AUC0-24
  AUC(0-t): 1550 µg·h/mL
[3]; human, plasma, oral, 300 mg/day, 300 mg/day (Tablet D), steady state, FH patients, n=8, read-out: AUClast
  AUC(0-t): 1590 µg·h/mL
[3]; human, plasma, oral, 600 mg/day, 600 mg/day (2× Tablet D), steady state, FH patients, n=8, read-out: AUC0-24
  AUC(0-t): 2680 µg·h/mL
[3]; human, plasma, oral, 600 mg/day, 600 mg/day (2× Tablet D), steady state, FH patients, n=8, read-out: AUClast
  AUC(0-t): 2700 µg·h/mL
[3]; human, plasma, oral, 900 mg/day, 900 mg/day (3× Tablet D), steady state, FH patients, n=7, read-out: AUC0-24
  AUC(0-t): 3530 µg·h/mL
[3]; human, plasma, oral, 900 mg/day, 900 mg/day (3× Tablet D), steady state, FH patients, n=7, read-out: AUClast
  AUC(0-t): 3490 µg·h/mL
[3]; human, plasma, oral, 300 mg dose level, after 28 daily doses, min-max 1.0-2.0 h, read-out: Median Tmax
  Tmax: 1.6 h
[3]; human, plasma, oral, 300 mg/day (Tablet D), steady state, FH patients, n=8
  CL/F: 3.55 mL/min
[3]; human, plasma, oral, 300 mg/day (Tablet D), steady state, FH patients, median, n=8, read-out: Tmax
  Tmax: 1.6 h
[3]; human, plasma, oral, 600 mg dose level, after 28 daily doses, min-max 0.93-3.0 h, read-out: Median Tmax
  Tmax: 1.5 h
[3]; human, plasma, oral, 600 mg/day (2× Tablet D), steady state, FH patients, n=8
  CL/F: 3.9 mL/min
[3]; human, plasma, oral, 600 mg/day (2× Tablet D), steady state, FH patients, median, n=8, read-out: Tmax
  Tmax: 1.5 h
[3]; human, plasma, oral, 900 mg dose level, after 28 daily doses, min-max 0.98-3.0 h, read-out: Median Tmax
  Tmax: 1.9 h
[3]; human, plasma, oral, 900 mg/day (3× Tablet D), steady state, FH patients, n=7
  CL/F: 4.52 mL/min
[3]; human, plasma, oral, 900 mg/day (3× Tablet D), steady state, FH patients, median, n=7, read-out: Tmax
  Tmax: 1.9 h
[3]; human, plasma, oral, 900 mg/day treatment period, Day 14, read-out: trough gemcabene plasma concentration, patient 006-003
  concentration at 14 day of the 900 mg/day period: 122 µg/mL
[3]; human, plasma, oral, 900 mg/day treatment period, Day 28, read-out: trough gemcabene plasma concentration, patient 006-003
  concentration at 28 day of the 900 mg/day period: 43.5 µg/mL
[3]; human, plasma, oral, 300 to 900 mg/day, read-out: median Tmax values across dose levels
  Tmax: 1.5 to 1.9 h
